# Test results as given in ChEMBL document CHEMBL4732026, “Benzimidazole-1,2,3-triazole hybrid molecules: synthesis and study of their interaction with G-quadruplex DNA” (RSC Med Chem, 2021).
# Calls of active or inactive are those of the source. The calls are words filed in the database; no cut-off is given here.
# Columns and labels:
# PC-3 [1] = assay: Cytotoxicity against human PC3 cells assessed as reduction in cell viability measured after 72 hrs by MTT assay; type: functional, cell-based; conditions: PC-3, 72 h
# B16-F10 = assay: Cytotoxicity against mouse B16-F10 cells assessed as reduction in cell viability measured after 72 hrs by MTT assay; type: functional, cell-based; conditions: B16-F10, 72 h
# CHO-K1 [2] = assay: Cytotoxicity against […] cells assessed as reduction in cell viability measured after 72 hrs by MTT assay; type: cell-based; conditions: Cricetulus griseus, CHO-K1, 72 h
# Quadruplex DNA [3] = assay: Binding affinity to Tel Q G-quadruplex DNA (unknown origin) assessed as dissociation constant incubated for 5 mins by UV- vis spectrophotometric analysis; type: nucleic-acid assay
# dsDNA [4] = assay: Binding affinity to double strand DNA (unknown origin) assessed as dissociation constant incubated for 5 mins by UV- vis spectrophotometric analysis; type: nucleic-acid assay
# PC-3 [5] = assay: Induction of cell cycle arrest in human PC3 cells assessed as accumulation at S phase at 50 uM after 48 hrs by propidium iodide staining based flow cytometry (reference value: 1.8%); type: functional
# PC-3 [6] = assay: Induction of cell cycle arrest in human PC3 cells assessed as accumulation at G2/M phase at 50 uM after 48 hrs by propidium iodide staining based flow cytometry (reference value: 1.4%); type: functional
# PC-3 [7] = assay: Induction of cell cycle arrest in human PC3 cells assessed as accumulation at Sub G1 phase at 55 uM after 48 hrs by propidium iodide staining based flow cytometry (reference value: 0.1%); type: functional
# PC-3 [8] = assay: Induction of cell cycle arrest in human PC3 cells assessed as accumulation at G1 phase at 55 uM after 48 hrs by propidium iodide staining based flow cytometry (reference value: 5%); type: functional
# PC-3 [9] = assay: Induction of cell cycle arrest in human PC3 cells assessed as accumulation at S phase at 55 uM after 48 hrs by propidium iodide staining based flow cytometry (reference value: 1.8%); type: functional
# PC-3 [10] = assay: Induction of cell cycle arrest in human PC3 cells assessed as accumulation at G2/M phase at 55 uM after 48 hrs by propidium iodide staining based flow cytometry (reference value: 1.4%); type: functional
# PC-3 [11] = assay: Induction of apoptosis in human PC-3 cells assessed as viable cells at 50 uM after 48 hrs by Annexin V based flow cytometric analysis (reference value: 89.57%); type: functional; conditions: read-out: Activity
# PC-3 [12] = assay: Induction of apoptosis in human PC-3 cells assessed as necrotic cells at 50 uM after 48 hrs by Annexin V based flow cytometric analysis (reference value: 0.79%); type: functional
# PC-3 [13] = assay: Induction of apoptosis in human PC-3 cells assessed as late apoptic cells at 50 uM after 48 hrs by Annexin V based flow cytometric analysis (reference value: 9.24%); type: functional
# PC-3 [14] = assay: Induction of apoptosis in human PC-3 cells assessed as early apoptic cells at 50 uM after 48 hrs by Annexin V based flow cytometric analysis (reference value: 0.40%); type: functional
# PC-3 [15] = assay: Induction of apoptosis in human PC-3 cells assessed as apoptotic cells at 50 uM incubated for 48 hrs by AnnexinV based flow cytometric analysis (reference value: 10.43%); type: functional
# PC-3 [16] = assay: Induction of apoptosis in human PC-3 cells assessed as viable cells at 55 uM after 48 hrs by Annexin V based flow cytometric analysis (reference value: 89.57%); type: functional; conditions: read-out: Activity
# PC-3 [17] = assay: Induction of apoptosis in human PC-3 cells assessed as late apoptic cells at 55 uM after 48 hrs by Annexin V based flow cytometric analysis (reference value: 9.24%); type: functional
# PC-3 [18] = assay: Induction of apoptosis in human PC-3 cells assessed as apoptotic cells at 55 uM incubated for 48 hrs by AnnexinV based flow cytometric analysis (reference value: 10.43%); type: functional
# [19] = Induction of apoptosis in CHO-K1 cells assessed as viable cells at 60 uM after 48 hrs by Annexin V based flow cytometric analysis (reference value: 93.71%); type: cell-based, Cricetulus griseus; conditions: chinese hamster, read-out: Activity
# CHO-K1 [20] = assay: Induction of apoptosis in CHO-K1 cells assessed as necrotic cells at 60 uM after 48 hrs by Annexin V based flow cytometric analysis (reference value: 0.70%); type: cell-based, Cricetulus griseus; conditions: chinese hamster, cho-k1, 48 h
# CHO-K1 [21] = assay: Induction of apoptosis in CHO-K1 cells assessed as early apoptic cells at 60 uM after 48 hrs by Annexin V based flow cytometric analysis (reference value: 4.58%); type: cell-based, Cricetulus griseus; conditions: chinese hamster, cho-k1, 48 h
# CHO-K1 [22] = assay: Induction of apoptosis in CHO-K1 cells assessed as late apoptic cells at 60 uM after 48 hrs by Annexin V based flow cytometric analysis (reference value: 1.01%); type: cell-based, Cricetulus griseus; conditions: chinese hamster, cho-k1, 48 h
# CHO-K1 [23] = assay: Induction of apoptosis in CHO-K1 cells assessed as apoptic cells at 60 uM after 48 hrs by Annexin V based flow cytometric analysis (reference value: 6.29%); type: cell-based, Cricetulus griseus; conditions: chinese hamster, cho-k1, 48 h
# [24] = Induction of apoptosis in CHO-K1 cells assessed as viable cells at 65 uM after 48 hrs by Annexin V based flow cytometric analysis (reference value: 93.71%); type: cell-based, Cricetulus griseus; conditions: chinese hamster, read-out: Activity
# CHO-K1 [25] = assay: Induction of apoptosis in CHO-K1 cells assessed as necrotic cells at 65 uM after 48 hrs by Annexin V based flow cytometric analysis (reference value: 0.70%); type: cell-based, Cricetulus griseus; conditions: chinese hamster, cho-k1, 48 h
# CHO-K1 [26] = assay: Induction of apoptosis in CHO-K1 cells assessed as late apoptic cells at 65 uM after 48 hrs by Annexin V based flow cytometric analysis (reference value: 1.01%); type: cell-based, Cricetulus griseus; conditions: chinese hamster, cho-k1, 48 h
# Quadruplex DNA [27] = assay: Binding affinity to Tel Q G-quadruplex DNA (unknown origin) assessed as hypsochromic shift at 8.5 uM incubated for 5 mins by UV- vis spectrophotometric analysis; type: nucleic-acid assay
# Quadruplex DNA [28] = assay: Binding affinity to c-Myc G-quadruplex DNA (unknown origin) assessed as hypsochromic shift at 8.5 uM incubated for 5 mins by UV- vis spectrophotometric analysis; type: nucleic-acid assay
# Quadruplex DNA [29] = assay: Binding affinity to c-Myc G-quadruplex DNA (unknown origin) assessed as hyperchromicity at 8.5 uM incubated for 5 mins by UV- vis spectrophotometric analysis; type: nucleic-acid assay
# Quadruplex DNA [30] = assay: Stabilization of Tel Q G-quadruplex DNA (unknown origin) assessed as change in melting temperature at 8.5 uM incubated for 5 mins by UV-visible thermal denaturation study; type: nucleic-acid assay
# dsDNA [31] = assay: Stabilization of dsDNA (unknown origin) assessed as change in melting temperature at 8.5 uM incubated for 5 mins by UV-visible thermal denaturation study; type: nucleic-acid assay
# Quadruplex DNA [32] = assay: Stabilization of Tel Q G-quadruplex DNA (unknown origin) assessed as increase in life time of DNA and compound complex at 8.5 uM incubated for 5 mins by fluorescence lifetime study; type: nucleic-acid assay
# dsDNA [33] = assay: Binding affinity to double strand DNA (unknown origin) assessed as increase in intensity of positive and negative peaks at 10 to 40 uM by circular dichroism spectra; type: nucleic-acid assay; conditions: dose 10-40 µM
# Quadruplex DNA [34] = assay: Binding affinity to Tel Q G-quadruplex DNA (unknown origin) assessed as increase in viscosity at 15 uM by EtBr/Hoechst 33342 method; type: nucleic-acid assay
# Quadruplex DNA [35] = assay: Binding affinity to c-Myc G-quadruplex DNA (unknown origin) assessed as increase in viscosity at 15 uM by EtBr/Hoechst 33342 method; type: nucleic-acid assay
# dsDNA [36] = assay: Binding affinity to double strand DNA (unknown origin) assessed as increase in viscosity at 15 uM by EtBr/Hoechst 33342 method; type: nucleic-acid assay
smiles,measurement,setting,value
O=C(Cn1cc(CSc2nc3cc(OC(F)F)ccc3[nH]2)nn1)NC1CCCCC1,IC50,PC-3 [1],53.3 µM
same,IC50,B16-F10,84.7 µM
same,IC50,CHO-K1 [2],62.9 µM
same,Kd,Quadruplex DNA [3],72.3 µM
same,Kd,dsDNA [4],175 µM
same,Activity,PC-3 [5],5.3%
same,Activity,PC-3 [6],9.6%
same,Activity,PC-3 [7],0.8%
same,Activity,PC-3 [8],18.2%
same,Activity,PC-3 [9],7.9%
same,Activity,PC-3 [10],11.2%
same,viability at 50 µM,PC-3 [11],87.3%
same,Activity,PC-3 [12],2.57%
same,Activity,PC-3 [13],9.39%
same,Activity,PC-3 [14],0.76%
same,Activity,PC-3 [15],12.72%
same,viability at 55 µM,PC-3 [16],81.4%
same,Activity,PC-3 [17],13.75%
same,Activity,PC-3 [18],18.62%
same,"viability at 48 h, 60 µM",[19],86%
same,Activity,CHO-K1 [20],1.97%
same,Activity,CHO-K1 [21],10.39%
same,Activity,CHO-K1 [22],1.62%
same,Activity,CHO-K1 [23],13.98%
same,"viability at 48 h, 65 µM",[24],84.4%
same,Activity,CHO-K1 [25],1.72%
same,Activity,CHO-K1 [26],2.16%
same,Activity,Quadruplex DNA [27],2.5 nm
same,Activity,Quadruplex DNA [28],5 nm
same,Activity,Quadruplex DNA [29],27.3%
same,ΔTm,Quadruplex DNA [30],14 °C
same,ΔTm,dsDNA [31],0 °C
same,Activity,Quadruplex DNA [32],Active
same,Activity,dsDNA [33],inactive
same,Activity,Quadruplex DNA [34],Active
same,Activity,Quadruplex DNA [35],Active
same,Activity,dsDNA [36],inactive
